Values after ≈ are worked out from the molar mass of the structure shown. Values joined by “and” are separate entries in the source; they are usually repeats but may differ in a detail not shown here. Equal entries are not always repeated.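 Where inhibition never reached the appropriate level, the endpoint shown equals the highest concentration tested. Otherwise, values were interpolated linearly from a five-concentration, 48-hour dose response in 96-well plates. Abbreviation: GI50, concentration required for 50% inhibition of growth. The concentration for full growth arrest is given as TGI.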
Columns and labels:
Assay in all cases: NCI tumour cell line growth inhibition, 48 h
[1] = tested on: DMS 114 small cell lung
[2] = tested on: M19-MEL melanoma
[3] = tested on: SNB-78 CNS
[4] = tested on: BT-549 breast
[5] = tested on: DU-145 prostate
[6] = tested on: HS 578T breast
[7] = tested on: MDA-MB-435
[8] = tested on: PC-3 prostate
[9] = tested on: T-47D breast
[10] = tested on: RXF-631 renal

SMILES	TGI [1] [µM]	TGI [2]	TGI [3]	other results
CCCCNC(=S)Nn1c(-c2ccccc2)nc2ccccc2c1=O	> 100	> 100 µM	–	–
C[N+](C)(C)CC(=O)N/N=C(/C=C/c1ccccc1)CC1OC(=O)c2ccccc21 (stereo not drawn)	> 100	> 100 µM	> 100 µM	–
CC(=O)OC1COC(N2C(=O)C(=O)c3c(C)cc(Cl)nc32)C(OC(C)=O)C1OC(C)=O (stereo not drawn)	> 100	> 100 µM	> 100 µM	–
O=C(Nc1ccc(Cl)cc1)NS(=O)(=O)c1ccc2c(c1)CCC2	> 100	> 100 µM and 58.5 µg/mL	> 100 µM and 51 µg/mL	TGI [4]: > 100 µM; TGI [5]: 92 µM; TGI [6]: 13.1 µM; GI50 [2]: 29.8 µg/mL (≈ 85.1 µM); TGI [7]: 48.3 µM; TGI [8]: 47.3 µM; GI50 [3]: 8.37 µg/mL (≈ 23.9 µM); TGI [9]: 74.6 µM
COC(=O)C1Cc2c([nH]c3ccccc23)[C@H](CC(C)C)N1 (stereo partly drawn)	> 100	> 100 µM	> 100 µM	–
CC(C)c1ccc2c(c1)CCC1C(C)(C)[C@@H](O)CC[C@]21C (stereo partly drawn)	> 100	44.2 µM	> 100 µM	–
O=C(c1ccccc1)c1nnn(Cc2cccc(Cl)c2)c1C(=O)c1ccccc1	> 100	> 100 µM	> 100 µM	–
COC(=O)C(=O)C(C#N)c1cccc2ccccc12 (stereo not drawn)	> 100	> 100 µM	> 100 µM	–
CCCOC(=O)C1CCC(=O)N1C(=O)C(Cl)Cl (stereo not drawn)	> 100	> 100 µM	> 100 µM	–
Cc1cc(O)c2c(c1)C[C@@H](O)C1=C2C(=O)c2c(O)ccc(OC3CC(O)C(OC4CC(OC5CCC(OC6CC(O)C(OC7CC(OC8CCC(O)C(C)O8)C(O)C(C)O7)C(C)O6)C(C)O5)C(O)C(C)O4)C(C)O3)c2C1=O (stereo partly drawn)	0.0378	0.0197 µM	0.064 µM	TGI [4]: 0.49 µM; GI50 [5]: 2.03 µM and 1.37 µM; TGI [5]: 0.492 µM and 3.45 µM and 2.69 µM; GI50 [6]: 1.59 µM; GI50 [7]: 0.198 µM and 0.204 µM; TGI [7]: 0.182 µM and 0.344 µM and 0.376 µM; GI50 [8]: 0.4 µM and 0.849 µM; TGI [8]: 0.56 µM and 1.49 µM and 3.5 µM; GI50 [9]: 0.626 µM; TGI [9]: 0.352 µM and 2.54 µM
COC1OC(OC)C2C(c3c(C)cc(C)cc3C)=NOC12 (stereo not drawn)	–	> 100 µM	> 100 µM	–
CCC12C=CCN3CC[C@]4(C(=C(C(=O)OC)[C@@H]1Nc1ncnc5c1ncn5C1OC(COC(C)=O)C(OC(C)=O)C1OC(C)=O)Nc1ccccc14)C32 (stereo partly drawn)	4.27	5.93 µM	8.26 µM	–
CC(=O)NNc1nc(C)c(C(/C=C/c2ccc(/C=C/C(=N\NC(=O)c3ccncc3)c3sc(NNC(C)=O)nc3C)cc2)=N/NC(=O)c2ccncc2)s1	> 100	> 100 µM	> 100 µM	–
Cc1ccc(S(=O)(=O)NCCCN(CCCNS(=O)(=O)c2ccc(C)cc2)S(=O)(=O)c2ccc(C)cc2)cc1	> 100	> 100 µM	> 100 µM	–
O=c1[nH]nc(-c2ccccc2)c(-c2ccccc2)c1-n1nc(-c2ccccc2)c2ccccc2c1=O	–	> 100 µM	> 100 µM	–
COc1c(O)c2ccccc2c2cc(O)ccc12	6.03	3.59 µM	46.6 µM	TGI [4]: 7.04 µM; TGI [5]: 21 µM; TGI [6]: > 58.9 µM; TGI [7]: 2.3 µM; TGI [8]: 60.1 µM; TGI [9]: 38.4 µM
COC(=O)C1=Cc2cc3c(cc2[C@H](c2ccc4c(c2)OCO4)C1C(=O)OC)OCO3 (stereo partly drawn)	> 100	> 100 µM	> 100 µM	–
CCN(CC)CCN(C)CC(C)(C)C(=O)/C=C/c1ccccc1	21.4	24.3 µM	–	–
CN(C)C1(C#N)CCC2(CC1)OCCO2	–	> 100 µM	> 100 µM	–
CN(C)CCCn1cnc2ncccc2c1=O	> 100	> 100 µM	> 100 µM	–
C=CCCc1cc(OC)ccc1CN(C)C(C)(C)CO	> 100	> 100 µM	> 100 µM	–
C=C1C(=O)OC2C1C(OC(=O)/C(=C/C)COC(C)=O)CC1(CO1)C1C(OC(=O)/C(=C/C)CO)C=C(C)C21 (stereo not drawn)	4.46	4.3 µM	6.41 µM	–
COC(=O)C1=C(O)C(O)=C(C(=O)OC)CC1	> 100	> 100 µM	> 100 µM	–
COc1ccc(CN(O)C2C(CO)OC(n3cc(I)c(=O)[nH]c3=O)C2O)cc1 (stereo not drawn)	> 100	> 100 µM	> 100 µM	–
Cn1cc(-c2ccc3cc(-c4ccc(CC(=O)Nc5cc(C(C)(C)C)nn5C)cc4)cnc3c2)cn1	–	–	–	GI50 [4]: 0.262 µM; TGI [4]: 2.38 µM; GI50 [5]: 0.17 µM; TGI [5]: > 100 µM; GI50 [6]: 0.187 µM; TGI [6]: > 100 µM; GI50 [7]: 0.309 µM; TGI [7]: > 100 µM; GI50 [8]: 0.36 µM; TGI [8]: > 100 µM; GI50 [9]: 0.209 µM; TGI [9]: 4.81 µM
O=C(CC1Sc2ccccc2NC1=O)Nc1cccc(Cl)c1 (stereo not drawn)	> 100	> 100 µM	> 100 µM	–
O=C(Nc1nc2ncn(CCOC(=O)c3ccccc3)c2c(=O)[nH]1)c1ccccc1	–	–	> 100 µM	TGI [5]: > 100 µM; TGI [6]: 51.7 µM; TGI [7]: 8.32 µM; TGI [8]: > 100 µM; TGI [10]: > 100 µM; TGI [9]: > 100 µM
